{"source": "patent US20170023547A1", "about": "“CHEMICAL THREAT ASSESSMENT BY RAPID MOLECULAR PHENOTYPING” (Vanderbilt University, priority 2015, published 2017)", "assay_type_in_all_cases": "cell-based, Human", "key": {"A549 cells [1]": {"tested_on": "A549 cells", "experiment": "Apoptosis assay (ApoONE, caspase 3/7 activation)", "settings": "50 μM cisplatin", "protocol": "Cell viability and apoptosis were assessed by CellTiter Glo (Promega) and ApoONE (Promega) kits, respectively. Molecular changes were screened using a MALDI524 FTICR MS platform.\nHuman lung carcinoma A549 cells were obtained from ATCC (Manassas, Va.) and cultured in Dulbecco's Modified Eagle's Medium (DMEM, Gibco) with 10% v/v heat-inactivated fetal bovine serum (Atlanta Biologicals) and 1% v/v penicillin/streptomycin (P/S) (Gibco) at 37° C. with 5% CO2 atmosphere. Stable isotope labeling by amino acids in cell culture (SILAC) media were prepared using SILAC DMEM (Thermo Scientific) containing 10% v/v dialyzed heat-inactivated FBS (Fisher), 1% v/v P/S, proline (250 mg/L) (Thermo Scientific), and appropriate light and heavy labeled arginine (84 mg/L), lysine (146 mg/L). […]\nAt each time point, cell viability and apoptosis were assessed by CellTiter-Glo (Promega) and ApoONE (Promega) kits, respectively. Plates were incubated at 37° C. in a plate reader (BioTek) with data acquisition every 10 min by luminescence (1 s read time, 200 gain) and fluorescence (485 nm excitation, 528 nm emission). […] Cell viability was also assessed using the LIVE/DEAD Viability/Cytotoxicity Kit for mammalian cells (ThermoFisher). […]"}, "A549 cells [2]": {"tested_on": "A549 cells", "experiment": "Multi-omics analysis (transcriptome, proteome, phosphoproteome, metabolome)", "settings": "50 μM cisplatin, A549 cells, 1, 6, 24 and 48 h", "protocol": "Samples were analyzed for transcriptome changes by RNA sequencing at the Genomics Services Lab, HudsonAlpha, for proteome changes by label free, SILAC, and phospho-enriched SILAC LC-MS/MS, and metabolome changes by UPLC-IM-MS and data-independent acquisition (MSE) using both hydrophilic-interaction liquid chromatography and reverse phase liquid chromatography.\nRNA was isolated using the RNeasy Mini Kit (Qiagen). For each time point, untreated and cisplatin-treated samples were isolated in triplicate and analyzed by the Genomics Services Lab at HudsonAlpha. RNAseq was performed using poly(A) selection on an Illumina HiSeq v4 sequencing platform. Reads were paired-end with a read length of 50 bp and 50 million reads per sample.\nCells were scraped from slides and lysed in 300 μL of 50 mM Tris pH 8, 150 mM NaCl, 1% Nonidet 40, 1 mM EDTA with added HALT Protease Inhibitor Cocktail (Thermo Scientific), centrifuged, and assayed for protein concentration (BCA Protein Assay, Thermo Scientific Pierce) using a SpectraMax M2e Microplate Reader with SoftMax Pro software version 5 (Molecular Devices). Aliquots of 100 μg of protein were acetone precipitated in six times the volume for 2 h at −80° C. Precipitates were washed three times with cold acetone and reconstituted in 10 μL of neat trifluoroethanol (TFE) and 10 μL of 100 mM Tris (pH 8.0). […]"}, "A549 cells [3]": {"tested_on": "A549 cells", "experiment": "Molecular screening assay (MALDI FTICR MS molecular variance score)", "settings": "1 and 6 h exposure, doses 20-100 μM", "protocol": "After incubation for the respective times, wells were washed 3 times with PBS and stored at −80° C. The effect of different toxin dosage amounts and exposure times on the molecular content of a sample may be evaluated and reported directly for thousands of molecular species based upon the mass spectra that were collected for each of the samples. A comparison of the mass-to-charge (m/z) peak content between spectra from dosed cells and a reference spectrum from a non-dosed control sample delivers a mass spectrometric assessment of toxicity-induced molecular variation. However, seeking a data-driven global comparison instead of focusing on specific molecular species of interest makes the assessment of molecular change between the different experimental conditions very complex and high dimensional. To determine which dosage amount induces the greatest molecular change, a quick and broad assessment of toxicity-induced molecular variance summarizing the entire recorded mass range was developed. […]\nWithin each time point (represented by a 24-well plate), seven different dosage conditions were measured: six different toxin dosages and one reference condition (e.g., untreated). Per dosage condition there were nine distinct replicate measurements made: each dosage condition was represented by three replicate wells, from which three technical replicate spectra were measured per well. […]"}}}
{"smiles": "N.N.[Cl][Pt][Cl]", "note": "[cisplatin]", "values": [{"measurement": "time of maximal caspase activation", "setting": "A549 cells [1]", "result": 24, "unit": "h"}, {"measurement": "percentage of unique species detected that were significantly changed", "setting": "A549 cells [2]", "result": 24, "unit": "%"}, {"measurement": "number of significantly changed unique species", "setting": "A549 cells [2]; of 53,500 unique species detected", "result": "13,483"}, {"measurement": "dose up to which molecular variance increased (maximum molecular response, optimal dose)", "setting": "A549 cells [3]", "result": 50, "unit": "µM"}]}
